Assay [1] deals with T1, Tyrosine-protein phosphatase non-receptor type 1 (Homo sapiens, UniProt P18031).
T1 sequence (P18031 whole entry): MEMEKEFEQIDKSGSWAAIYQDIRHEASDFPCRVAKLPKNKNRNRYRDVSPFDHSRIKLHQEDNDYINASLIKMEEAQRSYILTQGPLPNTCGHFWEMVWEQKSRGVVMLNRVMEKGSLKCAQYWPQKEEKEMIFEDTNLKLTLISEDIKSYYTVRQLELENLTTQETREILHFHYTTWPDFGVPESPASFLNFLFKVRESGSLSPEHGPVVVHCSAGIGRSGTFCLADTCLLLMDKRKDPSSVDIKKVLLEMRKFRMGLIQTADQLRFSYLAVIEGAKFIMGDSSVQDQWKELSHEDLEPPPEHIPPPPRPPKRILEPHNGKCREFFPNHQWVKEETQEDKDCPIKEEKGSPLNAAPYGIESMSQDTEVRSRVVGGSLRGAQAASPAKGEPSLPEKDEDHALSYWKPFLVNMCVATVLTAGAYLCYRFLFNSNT
Put plainly: Inhibition of 6xHis-tagged human PTP1B catalytic domain using pNPP as substrate by […] based assay.

The target of assay [2] is T2, Tyrosine-protein phosphatase non-receptor type 11 (Homo sapiens, UniProt Q06124).
T2 sequence (Q06124 whole entry): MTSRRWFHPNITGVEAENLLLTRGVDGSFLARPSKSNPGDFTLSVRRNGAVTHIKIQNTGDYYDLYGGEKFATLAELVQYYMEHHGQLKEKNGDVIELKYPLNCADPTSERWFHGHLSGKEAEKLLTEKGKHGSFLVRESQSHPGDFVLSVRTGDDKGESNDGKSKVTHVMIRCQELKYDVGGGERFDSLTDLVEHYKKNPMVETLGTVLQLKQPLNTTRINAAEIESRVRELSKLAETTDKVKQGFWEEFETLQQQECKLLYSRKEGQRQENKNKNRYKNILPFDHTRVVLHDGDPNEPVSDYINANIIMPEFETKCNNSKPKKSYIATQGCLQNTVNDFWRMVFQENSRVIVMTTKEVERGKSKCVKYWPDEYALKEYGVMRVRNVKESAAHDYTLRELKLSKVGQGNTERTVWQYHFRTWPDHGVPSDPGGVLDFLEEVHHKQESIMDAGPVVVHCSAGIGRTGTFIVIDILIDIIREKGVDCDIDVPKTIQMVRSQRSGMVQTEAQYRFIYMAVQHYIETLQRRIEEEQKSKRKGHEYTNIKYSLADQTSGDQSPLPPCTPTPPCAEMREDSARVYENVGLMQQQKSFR
Put plainly: Binding affinity to SHP2 (unknown origin) assessed as inhibition constant.

Assay [3] in a line: Covalent allosteric inhibition of full length AKT (unknown origin). Further details: species or system Homo sapiens.
A short description of assay [4]: Non-competitive allosteric inhibition of PTP1B (unknown origin) transformed in Escherichia coli BL21. Further details: species or system Homo sapiens.

The term IC50 denotes the midpoint of a concentration-inhibition curve. Low values mean higher potency, high ones lower potency. Turning to `C=CC(=O)Nc1ccnc2ccccc12`, the IC50 in assay [1] worked out at 35 µM. Moreover, in assay [2], the Ki worked out at 279 µM.
For the compound `C=CC(=O)Nc1cccc(C(=O)NC2CCN(Cc3ccc(-c4nc5cc[nH]c(=O)c5cc4-c4ccccc4)cc3)CC2)c1`, in assay [3], the Ki came out at 0.0069 µM.
In turn, `CN(C)CCSSCC(=O)Nc1cc(-c2ccc(F)cc2F)ccc1O` returned a Ki in assay [4] of 7.1 µM.

The record behind these values is ChEMBL document CHEMBL6121070, “Covalent-Allosteric Inhibitors: Do We Get the Best of Both Worlds?” (J Med Chem, 2025).
